This is an account of results in patent US8377974B2 (Millennium Pharmaceuticals, Inc., priority 2004, dated 2013).

In general, IC50 refers to the concentration that inhibits the measured activity by half. Read a low IC50 as greater potency.

T1 sequence (P00742 235-488 limits assumed): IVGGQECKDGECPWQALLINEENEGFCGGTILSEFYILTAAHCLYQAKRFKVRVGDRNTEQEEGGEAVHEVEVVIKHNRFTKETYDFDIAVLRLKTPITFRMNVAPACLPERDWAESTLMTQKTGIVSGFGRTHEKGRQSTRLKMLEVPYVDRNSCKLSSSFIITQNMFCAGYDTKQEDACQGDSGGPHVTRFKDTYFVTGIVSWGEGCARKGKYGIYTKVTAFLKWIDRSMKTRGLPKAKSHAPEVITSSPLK
T1 sequence (P00742 41-179 partner limits assumed): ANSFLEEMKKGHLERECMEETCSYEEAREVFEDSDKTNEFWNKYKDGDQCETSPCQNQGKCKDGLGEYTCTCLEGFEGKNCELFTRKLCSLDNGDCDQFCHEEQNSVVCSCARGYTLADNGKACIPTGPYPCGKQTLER

The assay concerns the target T1, human plasma protein factor Xa (Homo sapiens, UniProt P00742).
T1 construct: measure proteolytic activity of the enzyme (factor Xa); purchased Haematologic Technologies (Essex Junction, Vt.); host or cells: human plasma
As to the kind of experiment: Factor Xa IC50 determination: cleavage of paranitroanilide substrate S-2765 in 96-well plates. It counts as biochemical. Particulars: fXa 1 nM, S-2765 100 μM, Tris buffered saline pH 7.4, room temperature. The gist of the method:
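Human plasma factor Xa (1 nM) preincubated 5 min at room temperature with inhibitor (0.01 nM–10 μM final) in Tris-buffered saline pH 7.4 with 5 mM CaCl2, 0.1% BSA, 5% DMSO. S-2765 at 100 μM final; hydrolysis at 405 nm over 2 min. IC50 from 4-parameter fit of initial velocities.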
`O=C(NCC1CC(c2ccc(-c3cccnc3)cc2)=NO1)c1ccc(Cl)s1` (stereo not shown) [Example 190, 5-Chloro-thiophene-2-carboxylic acid [3-(4-pyridin-3-yl-phenyl)-4,5-dihydro-isoxazol-5-ylmethyl]-amide] came in with an IC50 of 100 to 500 nM.

Compound `CN(C)C(=N)c1ccc(-n2cc(CNC(=O)c3ccc(Cl)s3)nn2)cc1` [Example 313, N-((1-(4-(N,N-Dimethylcarbamimidoyl)phenyl)-1H-1,2,3-triazol-4-yl)methyl)-5-chlorothiophene-2-carboxamide] yielded an IC50 not above 100 nM.

Regarding `CN(Cc1ccco1)C(=N)c1ccc(-c2nc(CNC(=O)c3ccc(Cl)s3)cs2)cc1` [Example 356, N-((2-(4-(N-(Furan-2-ylmethyl)-N-methylcarbamimidoyl)phenyl)thiazol-4-yl)methyl)-5-chlorothiophene-2-carboxamide], the IC50 is not below 500 nM.

For the compound `N=C(c1ccc(-c2cc(CNC(=O)c3ccc(Cl)s3)on2)cc1)N1CCCC1` [Example 23, 5-Chloro-thiophene-2-carboxylic acid {3-[4-(imino-pyrrolidin-1-yl-methyl)-phenyl]-isoxazol-5-ylmethyl}-amide], the IC50 is not above 100 nM.

Compound `COCc1ccccc1-c1ccc(-c2cc(CNC(=O)c3ccc(Cl)s3)on2)cc1` [Example 189, 5-Chloro-thiophene-2-carboxylic acid [3-(2′-methoxymethyl-biphenyl-4-yl)-isoxazol-5-ylmethyl]-amide] had an IC50 of 100 to 500 nM.

As for `CCN(C)C(=N)c1ccc(C2=NOC(C)(CNC(=O)c3ccc(Cl)s3)C2)cc1` (stereo not shown) [Example 64, 5-Chloro-thiophene-2-carboxylic acid {3-[4-(N-ethyl-N-methyl-carbamimidoyl)-phenyl]-5-methyl-4,5-dihydro-isoxazol-5-ylmethyl}-amide], the IC50 was not above 100 nM.

Consider `COc1ccc(=O)n(-c2ccc(-n3cc(CNC(=O)c4ccc(Cl)s4)nn3)cc2)c1` [Example 297, 5-Chloro-N-((1-(4-(5-methoxy-2-oxopyridin-1(2H)-yl)phenyl)-1H-1,2,3-triazol-4-yl)methyl)thiophene-2-carboxamide], for which the IC50 is not above 100 nM.

With `CC1(CNC(=O)c2ccc(Cl)s2)CC(c2ccc(Cl)cc2)=NO1` (stereo not shown) [Example 154, 5-Chloro-thiophene-2-carboxylic acid [3-(4-chloro-phenyl)-5-methyl-4,5-dihydro-isoxazol-5-ylmethyl]-amide], the concentration for half-maximal inhibition (IC50) was not below 500 nM.

In turn, `COCCN(C)Cc1ccccc1-c1ccc(C2=NOC(CNC(=O)c3ccc(Cl)s3)C2)cc1` (stereo not shown) [Example 198, 5-Chloro-thiophene-2-carboxylic acid [3-(2′-{[(2-methoxy-ethyl)-methyl-amino]-methyl}-biphenyl-4-yl) 4,5-dihydro-isoxazol-5-ylmethyl]-amide] gave an IC50 not above 100 nM.

In turn, `COCCN(C)c1cc(C(=N)N2CCCCC2)ccc1C1=NOC(CNC(=O)c2ccc(Cl)s2)C1` (stereo not shown) [Example 89, 5-Chloro-thiophene-2-carboxylic acid (3-{4-(imino-piperidin-1-yl-methyl)-2-[(2-methoxy-ethyl)-methyl-amino]-phenyl}-4,5-dihydro-isoxazol-5-ylmethyl)-amide] gave an IC50 of 100 to 500 nM.

`CCCN(C)C(=N)c1ccc(-c2cc(CNC(=O)c3ccc(Cl)s3)on2)cc1` [Example 29, 5-Chloro-thiophene-2-carboxylic acid {3-[4-(N-methyl-N-propyl-carbamimidoyl)-phenyl]-isoxazol-5-ylmethyl}-amide] had an IC50 not above 100 nM.

For the compound `O=C(NCc1cn(-c2ccc(N3CCCOCC3)nc2)nn1)c1ccc(Cl)s1` [Example 385, N-((1-(6-(1,4-Oxazepan-4-yl)pyridin-3-yl)-1H-1,2,3-triazol-4-yl)methyl)-5-chlorothiophene-2-carboxamide], the concentration for half-maximal inhibition (IC50) was in the range of 100 to 500 nM.

With `CN(C)CCN(C)C(=N)c1ccc(-c2cc(CNC(=O)c3ccc(Cl)s3)on2)cc1` [Example 30, 5-Chloro-thiophene-2-carboxylic acid (3-{4-[N-(2-dimethylamino-ethyl)-N-methyl-carbamimidoyl]-phenyl}-isoxazol-5-ylmethyl)-amide], the IC50 is not above 100 nM.

As for `O=C(NCc1cn(-c2ccc(-n3cccc(F)c3=O)cc2)nn1)c1ccc(Cl)s1` [Example 291, 5-Chloro-N-((1-(4-(3-fluoro-2-oxopyridin-1(2H)-yl)phenyl)-1H-1,2,3-triazol-4-yl)methyl)thiophene-2-carboxamide], the IC50 was not above 100 nM.

`CN1CCN=C1c1ccc(C2=NOC(CNC(=O)c3ccc(Cl)s3)C2)c(N(C)C)c1` (stereo not shown) [Example 75, 5-Chloro-thiophene-2-carboxylic acid {3-[2-dimethylamino-4-(1-methyl-4,5-dihydro-1H-imidazol-2-yl)-phenyl]-4,5-dihydro-isoxazol-5-ylmethyl}-amide] showed an IC50 of 100 to 500 nM.

The compound `CN(C)CCN(C)C(=N)c1ccc(-c2nc(CNC(=O)c3ccc(Cl)s3)cs2)cc1` [Example 355, N-((2-(4-(N-(2-(Dimethylamino)ethyl)-N-methylcarbamimidoyl)phenyl)thiazol-4-yl)methyl)-5-chlorothiophene-2-carboxamide] came in with an IC50 not below 500 nM.

`C[C@@H](NC(=O)c1ccc(Cl)s1)c1cc(-c2ccc(C(=N)N3CCCC3)cc2)no1` [Example 51, (R)-5-Chloro-thiophene-2-carboxylic acid (1-{3-[4-(imino-pyrrolidin-1-yl-methyl)-phenyl]-isoxazol-5-yl}-ethyl)-amide] yielded an IC50 not above 100 nM.

Take `O=C(NCc1cn(-c2ccc(N3CCCCC3)nc2)nn1)c1ccc(Cl)s1` [Example 392, 5-Chloro-N-((1-(6-(piperidin-1-yl)pyridin-3-yl)-1H-1,2,3-triazol-4-yl)methyl)thiophene-2-carboxamide]: the IC50 is 100 to 500 nM.

`N=C(c1ccc(-n2cnc(CNC(=O)c3ccc(Cl)s3)c2)cc1)N1CCC1` [Example 366, N-((1-(4-(Azetidin-1-yl(imino)methyl)phenyl)-1H-imidazol-4-yl)methyl)-5-chlorothiophene-2-carboxamide]: the IC50 was not above 100 nM.

As for `CCOc1cc(C(=N)N2CCCC2)ccc1-c1cc(CNC(=O)c2ccc(Cl)s2)on1` [Example 124, 5-Chloro-thiophene-2-carboxylic acid {3-[2-ethoxy-4-(imino-pyrrolidin-1-yl-methyl)-phenyl]-isoxazol-5-ylmethyl}-amide], the half-maximal inhibitory concentration (IC50) was not above 100 nM.

As for `CCOC(=O)C1CCN(C(=N)c2ccc(C3=NOC(C)(CNC(=O)c4ccc(Cl)s4)C3)cc2)CC1` (stereo not shown) [Example 61, 1-{[4-(5-{[(5-Chloro-thiophene-2-carbonyl)-amino]-methyl}-5-methyl-4,5-dihydro-isoxazol-3-yl)-phenyl]-imino-methyl}-piperidine-4-carboxylic acid ethyl ester], the IC50 was not above 100 nM.

`O=C(NCC1CC(c2ccc(Nc3ccc4ncccc4c3)cc2)=NO1)c1ccc(Cl)s1` (stereo not shown) [Example 396, 5-Chloro-N-((3-(4-(quinolin-6-ylamino)phenyl)-4,5-dihydroisoxazol-5-yl)methyl)thiophene-2-carboxamide] yielded an IC50 not below 500 nM.

On to `CN1CCN=C1c1ccc(-c2cc(CNC(=O)c3ccc(Cl)s3)on2)cc1` [Example 22, 5-Chloro-thiophene-2-carboxylic acid {3-[4-(1-methyl-4,5-dihydro-1H-imidazol-2-yl)-phenyl]-isoxazol-5-ylmethyl}-amide], for which the IC50 was not above 100 nM.

Regarding `CN(c1ccncc1)c1ccc(-c2cc(CNC(=O)c3ccc(Cl)s3)on2)cc1` [Example 255, 5-Chloro-thiophene-2-carboxylic acid {3-[4-(methyl-pyridin-4-yl-amino)-phenyl]-isoxazol-5-ylmethyl}-amide], the IC50 is not below 500 nM.

Turning to `CN(C)CCN(C)C(=N)c1ccc(-c2nc(CNC(=O)c3ccc(Cl)s3)co2)cc1` [Example 345, N-((2-(4-(N-(2-(Dimethylamino)ethyl)-N-methylcarbamimidoyl)phenyl)oxazol-4-yl)methyl)-5-chlorothiophene-2-carboxamide], the IC50 fell in the range of 100 to 500 nM.

As for `O=C(NCC1CC(c2ccc(-c3ccncc3)cc2)=NO1)c1ccc(Cl)s1` (stereo not shown) [Example 191, 5-Chloro-thiophene-2-carboxylic acid [3-(4-pyridin-4-yl-phenyl)-4,5-dihydro-isoxazol-5-ylmethyl]-amide], the IC50 is not below 500 nM.

In turn, `O=C(NCc1cc(-c2cccc(-c3ccc(CN4CCCC4)cc3)c2)no1)c1ccc(Cl)s1` [Example 273, 5-Chloro-thiophene-2-carboxylic acid [3-(4′-pyrrolidin-1-ylmethyl-biphenyl-3-yl)-isoxazol-5-ylmethyl]-amide] showed an IC50 not below 500 nM.

Compound `O=C(NCc1cn(-c2ccc(N3CCCCC3=O)nc2)nn1)c1ccc(Cl)s1` [Example 388, 5-Chloro-N-((1-(6-(2-oxopiperidin-1-yl)pyridin-3-yl)-1H-1,2,3-triazol-4-yl)methyl)thiophene-2-carboxamide] had an IC50 not above 100 nM.

`CN(C)C(=N)c1ccc(-c2cc(CNC(=O)c3ccc(Cl)s3)on2)c(N(C)C)c1` [Example 94, 5-Chloro-thiophene-2-carboxylic acid {3-[2-dimethylamino-4-(N,N-dimethyl-carbamimidoyl)-phenyl]-isoxazol-5-ylmethyl}-amide] came in with an IC50 not above 100 nM.

`CN(Cc1ccco1)C(=N)c1ccc(C2=NOC(CNC(=O)c3ccc(Cl)s3)C2)cc1` (stereo not shown) [Example 15, 5-Chloro-thiophene-2-carboxylic acid {3-[4-(N-furan-2-ylmethyl-N-methyl-carbamimidoyl)-phenyl]-4,5-dihydro-isoxazol-5-ylmethyl}-amide] had an IC50 of 100 to 500 nM.

In the case of `CNC(=N)c1ccc(-c2nc(CNC(=O)c3ccc(Cl)s3)cs2)cc1` [Example 358, N-((2-(4-(N-Methylcarbamimidoyl)phenyl)thiazol-4-yl)methyl)-5-chlorothiophene-2-carboxamide], the IC50 is not below 500 nM.
